Test results as given in patent US12605358B2, “Composition for preventing or treating nervous system diseases comprising compound that inhibits mTOR signaling pathway as active ingredient” (ALIAD BIOPHARMA, priority 2021, dated 2026).

Key:
[1] = test system: primary cultured cerebral neurons; assay: Neuron protective efficacy against Aβ toxicity (DAPI cell count); assay type: cell-based, rat; details: Aβ 0.5 or 1 μM, HN-1703 0.1 or 0.5 μM, 12 or 24 hours; Aβ alone reduced viability by 50% or more; FIGS. 5A, 5B
Procedure: Primary cultured neurons from the cerebral cortex of rat embryos (E16) were treated with […] or 1 μM Aβ and 0.1 μM or 0.5 μM HN-1703 for 12 or 24 hours. Cell viability was evaluated by measuring the number of cells stained with DAPI.
Aβ has strong toxicity to neurons, and the death of neurons caused by Aβ accumulated in the brain is a major cause of Alzheimer's disease. To evaluate whether HN-1703 for inhibiting the mTOR signaling pathway and promoting autophagy may directly protect neurons from Aβ toxicity, an inhibitory effect of HN-1703 on Aβ-induced apoptosis of primary cultured cerebral neurons was evaluated, and the number of live cells stained with DAPI was quantified and shown in FIGS. 5A and 5B.

5xFAD transgenic mice = assay: Autophagy activation in neurons and microglia (Iba-1/MAP2/LC3 staining); assay type: in vivo; details: FIG. 16
Procedure: 5xFAD animals were administered with HN-1703 at three doses for 14 days to male heterozygotes aged 6 months (all born within 3 days). The behaviors of mice were measured in a dark cycle in which the mice were active while alternating light and dark in a 12-hour cycle in a breeding room chamber, and the mice were freely accessible to food and water and bred in compliance with experimental animal ethical guidelines of Kyung Hee University. In each group, the HN-1703 was intraperitoneally injected at the same time once a day in a volume of 100 μl to 12 mice in a normal group (wild type littermate), 9 5xFAD mice in a vehicle (DMSO administration), 8 5xFAD mice in a 5 mg/kg administered group, 9 5xFAD mice in a 10 mg/kg administered group, and 9 5xFAD mice in a 20 mg/kg administered group. […] In a behavioral measurement room, humidity (40 to 60%) and temperature (22 to 26° C.) were maintained, and reflected light was maintained to avoid sound and light effects. Behavioral measures were measured in Y-maze, Morris Water Maze, and Passive Avoidance test for 18 days in sequence.
A brain slice immunostaining method was modified and used as described in Heo H et al. (J Ethnopharmacol, 2009). Mice were transcardially perfused with 4% PFA. After being immersed and fixed in 4% PFA for 4 hours, the brain tissue was unfrozen in 30% sucrose, frozen in an optimal cutting temperature (OCT) mixture, and stored at −80° C. Brain tissue slices were sectioned in a coronal direction at a thickness of 35 μm. The brain tissue slices were immersed in a storage solution (30% glycerol, 30% ethylene glycol, PBS) and stored at 4° C. The stored brain slices were permeabilized in 0.5% Triton X-100 for 20 minutes and shaken in 2 N HCl for 30 minutes at 37° C. Then, the brain slices were blocked in a free-floating state for 2 hours in 15% standard serum, 3% bovine serum albumin (BSA, bio-WORLD, Dublin, OH, USA) and 0.1% Triton X-100. The slices were shaken with a first antibody for 16 hours at 4° C. Thereafter, a second antibody complementary to the first antibody was attached at room temperature (22±1° C.) for 45 minutes. Then, the nuclei were washed with physiological saline (PBS) containing 1 μg/ml PI (propidiumiodide, Sigma) or DAPI (1:4000), and then placed on a slide glass and sealed using an aqueous mount, and observed under a confocal scanning microscope for tissue observation (LSM 810 Carl Zeiss, Oberkochen, Germany). […]
FIG. 16 illustrates confocal scanning micrographs of the hippocampal dentate gyrus region after triple staining with an Iba-1 antibody, an MAP2 antibody, and an LC3 antibody, and quantifying the number of LC3+/MAP2+ cells, the number of LC3+/Iba-1+ cells, the number of MAP2+ cells, and the number of Iba-1+ cells.

mTORC1 = target: T1, mTORC1 (Homo sapiens, UniProt P42345); assay: mTORC1 inhibition, immunoblot of S6K Thr389 phosphorylation in HeLa cells; assay type: cell-based; details: at 40 µM, FIG. 2A
T1 construct: endogenous in cells; host or cells: HeLa
Procedure: HeLa cells were cultured in DMEM (Dulbesco's Modified Eagles Media) containing 10% FBS, penicillin (100 units/ml), and streptomycin (100 μg/ml) at 37° C. in a 5% CO2 incubator. Culture was started by seeding 4×10^5 cells in a 100 mm culture dish, and subcultured every 3 days.
Immunoblot analysis was performed by the following method. SDS-PAGE-developed proteins were electroblotted and transferred and a PVDF membrane was blocked by shaking for 1 hour in a TBS-T buffer (20 mM Tris, 137 mM NaCl, 0.1% Tween 20) containing 5% skim milk. The membrane was repeatedly washed with a TBS-T buffer three times for 5 minutes, and reacted with a first antibody diluted in a TBS-T buffer containing 5% skim milk or 5% BSA overnight at 4° C. Thereafter, the membrane was repeatedly washed with a TBS-T buffer three times for 5 minutes, and reacted with a second antibody diluted in a TBS-T buffer containing 5% skim milk for 30 minutes at room temperature. The membrane was repeatedly washed with a TBS-T buffer containing 5% skim milk five times for 5 minutes, and then protein bands bound to the second antibody were detected by a chemiluminescence method. […]

COc1cc(OC)c2c(=O)c3cc4c(cc3oc2c1)OCO4 [HN-1703, 7,9-dimethoxy-10H-[1,3]dioxolo[4,5-b]xanthen-10-one]
cell viability (number of live cells stained with DAPI) under Aβ toxicity [1]: viability was significantly increased | activated microglia, Iba-1+ cells (5xFAD transgenic mice; 5 to 20 mg/kg, compared to the 5xFAD-DMSO control group): greatly reduced | number of neurons double-stained with MAP2 and LC3-II (5xFAD transgenic mice): increased in a dose-dependent manner | number of MAP2+ neurons in the dentate gyrus (5xFAD transgenic mice; approaches the WT normal group): increased in a dose-dependent manner | autophagy-activated microglia double-stained with LC3-II (5xFAD transgenic mice; compared to the 5xFAD-DMSO control group, dose-dependent): increased twice or more | inhibition of mTORC1 activity (S6K Thr389 phosphorylation) compared to the control group (mTORC1): 48%
